Laboratory results: PubChem BioAssay AID1963832 (Molecular Pharmacology Branch, DTP, NCI, 2024)
Several values for one entry are separate records, joined by “and”; a condition that tells them apart may be missing. Identical values can stand only once.

Test system: 885724-159-R-J1-PDC complex spheroid viability
Experiment: Anticancer human tumor 885724-159-R-J1-PDC patient-derived pancreatic adenocarcinoma cell line growth inhibition [POLQ]
Details: for viability, T/C: stronger effect = lower value
Description: Multicellular complex tumor spheroid response to Polymerase (POL) inhibitors (novobiocin, ART-558, RP6685) in combination with a variety of drugs and investigational agents in selected tumor cell lines
The POL inhibitors (novobiocin, ART-558, and RP6685) were evaluated both individually and in combination with standard of care and investigational anticancer small molecules within a complex spheroid model of solid tumors. . Complex spheroids include a stromal component modeled by human endothelial cells (HUVEC) and fibroblasts modeled by human mesenchymal stem cells (MSCs). The concentration ranges selected for each drug and investigational agent were based upon clinically achievable concentrations if the clinical Cmax of the agent was known.
Compounds. The drugs and investigational agents: novobiocin (NSC847541), ART-558 (NSC835418), RP-6685 (NSC848927), peposertib (NSC802822), ceralasertib (NSC780249), elimusertib (NSC800525), camonsertib (NSC841442), AZD-1390 (NSC803789), olaparib (NSC753686), talazoparib (NSC767125), rucaparib (NSC756644), sotorasib (NSC818433), MRTX-1133 (NSC836407), SN-38 (NSC673596), topotecan (NSC609699), epotoside (NSC141540), doxorubicin (NSC123127), gemcitabine (NSC613327), 5-fluorouracil (NSC19893), paclitaxel (NSC125973), vemurafenib (NSC761431), MSA-2 (NSC828583), SN-011 (NSC837082), adavosertib (NSC754352), prexasertib (NSC758257), carboplatin (NSC241240) and oxaliplatin (NSC266046), were obtained from the National Cancer Institute (NCI) Developmental Therapeutics Program Chemical Repository (21). The FDA-approved anticancer drug set is available from the Developmental Therapeutics Program at https://dtp.cancer.gov/organization/dscb/obtaining/. […] The stock solutions were prepared in dimethyl sulfoxide (DMSO, Sigma-Aldrich, St. Louis, MO, cat. D2650), except for the platinum compounds which were prepared in saline (Quality Biological, Gaithersburg, MD, cat. 114-055-101), at 800-fold the tested concentration and stored at -70 degrees C prior to their use. All drugs and investigational agents were tested over a range starting from a high concentration at or near the clinical Cmax and decreasing in half-log increments. If the clinical Cmax for an agent had not been determined, the highest concentration tested was 10 microM, except for SN-38, which was tested at a high concentration of 1 microM.
Cell Culture. All cells were maintained in an incubator at 37 degrees C and 5% CO2 with 95% humidity. The PDC lines were cultured according to standard operating procedures established by the NCI PDMR (https://pdmr.cancer.gov). Table 3 of the manuscript, lists the cell lines along with the number of the three cell types plated to form the mct-spheroids and media for tumor cell growth. After thawing, all PDC lines, except 997537-175-T-J1-PDC and 415267-285-R-J2-PDC, were cultured in Matrigel-coated flasks prepared with a working solution of 1X Ham's F-12 nutrient mix, without supplementation (Thermo Fisher Scientific, cat. 11765054), 100 U/mL penicillin-streptomycin (Thermo Fisher Scientific, cat. 15140122), and 2.5% Matrigel (Corning Inc., Corning, NY, cat. 354248) for the first three passages. The two PDC lines 997537-175-T-J1-PDC and 415267-285-R-J2-PDC were cultured on uncoated flasks. The 857933-349-R-J2-PDC line was cultured in 6C/Colon 1B media containing advanced DMEM/F-12 (Thermo Fisher Scientific, cat. 12634028), 10 mM HEPES (Thermo Fisher Scientific, cat. 15630080), 1X GlutaMAX supplement (Thermo Fisher Scientific, cat. 35050061), 0.1 mg/mL primocin (InvivoGen, San Diego, CA, cat. ant-pm-2), 10% defined fetal bovine serum, heat inactivated (HyClone Laboratories Inc., Logan, UT, cat. SH30070.03HI), 50% L-WRN conditioned media (ATCC, cat. CRL-3276), 1.25 mM N-Acetyl-L-cysteine (Sigma-Aldrich, cat. A9165), 10 mM nicotinamide (Sigma-Aldrich, cat. N0636), 1X B-27 supplement (Thermo Fisher Scientific, cat. 17504044), 1X N-2 supplement (Thermo Fisher Scientific, cat. […]
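Further: spheroids exposed to compounds for 7 days.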

CC(=O)O[C@H]1C(=O)[C@@]2(C)[C@H]([C@H](OC(=O)c3ccccc3)[C@]3(O)C[C@H](OC(=O)[C@H](O)[C@@H](NC(=O)c4ccccc4)c4ccccc4)C(C)=C1C3(C)C)[C@]1(OC(C)=O)CO[C@@H]1C[C@@H]2O
viability, T/C (compound 0.00949 µM): 65.2% and 64.9% and 66%
viability, T/C (compound 0.03 µM): 56.1% and 54% and 50.9%
viability, T/C (compound 0.0949 µM): 56.4% and 63.5% and 54.9%
viability, T/C (compound 0.3 µM): 63.1% and 64.1% and 57.5%
viability, T/C (compound 0.949 µM): 67.5% and 71.9% and 63.7%
viability, T/C (compound 3 µM): 68.5% and 70.2% and 60.7%
IC50 (curve of compound): > 3 µM

CC1COCCN1c1cc(-c2ccnn2C)c2ccnc(-c3ccn[nH]3)c2n1 (stereo unspecified)
viability, T/C (compound 0.0316 µM): 73.3% and 80% and 94.5%
viability, T/C (compound 0.1 µM): 57.2% and 56.3% and 59.7%
viability, T/C (compound 0.316 µM): 49.6% and 42.2% and 46.3%
viability, T/C (compound 1 µM): 44.4% and 39.4% and 45.7%
viability, T/C (compound 3.16 µM): 43.7% and 39.8% and 43.8%
viability, T/C (compound 10 µM): 38.9% and 38.2% and 38.7%
IC50 (curve of compound): 0.283 µM and 0.167 µM and 0.246 µM

O=c1[nH]cc(F)c(=O)[nH]1
viability, T/C (compound 0.0316 µM): 98.3% and 96.3% and 103%
viability, T/C (compound 0.1 µM): 102% and 95.3% and 108%
viability, T/C (compound 0.316 µM): 103% and 89.2% and 105%
viability, T/C (compound 1 µM): 87.9% and 98.7% and 102%
viability, T/C (compound 3.16 µM): 87.6% and 89.9% and 91.7%
viability, T/C (compound 10 µM): 75% and 75.8% and 71.4%
IC50 (curve of compound): > 10 µM

CCCS(=O)(=O)Nc1ccc(F)c(C(=O)c2c[nH]c3ncc(-c4ccc(Cl)cc4)cc23)c1F
viability, T/C (compound 0.0316 µM): 93.7% and 104% and 95.6%
viability, T/C (compound 0.1 µM): 117% and 108% and 115%
viability, T/C (compound 0.316 µM): 124% (2×) and 122%
viability, T/C (compound 1 µM): 158% and 146% and 140%
viability, T/C (compound 3.16 µM): 158% and 144% and 133%
viability, T/C (compound 10 µM): 90.7% and 102% and 68.9%
IC50 (curve of compound): > 10 µM

CCc1cc2c(N3CCc4c(cc(Cn5ccnc5)cc4-c4cn(C)nc4C(F)(F)F)C3=O)ccnc2c(OC)n1 + Nc1ccc(C#CCN(C(=O)Cc2ncc(C(F)(F)F)cc2C(F)(F)F)c2ccc(F)cc2)nn1
IC50 (curve of first compound, second compound 0.0316 µM): > 10 µM
IC50 (curve of first compound, second compound 0.1 µM): > 10 µM
IC50 (curve of first compound, second compound 0.316 µM): > 10 µM
IC50 (curve of first compound, second compound 1 µM): > 10 µM
IC50 (curve of first compound, second compound 3.16 µM): > 10 µM
IC50 (curve of first compound, second compound 10 µM): > 10 µM
viability, T/C (second compound 0.0316 µM, first compound 0.0316 µM): 81.6%
viability, T/C (second compound 0.0316 µM, first compound 0.1 µM): 85.8%
viability, T/C (second compound 0.0316 µM, first compound 0.316 µM): 90.6%
viability, T/C (second compound 0.0316 µM, first compound 1 µM): 90%
viability, T/C (second compound 0.0316 µM, first compound 3.16 µM): 73.5%
viability, T/C (second compound 0.0316 µM, first compound 10 µM): 64.4%
viability, T/C (second compound 0.1 µM, first compound 0.0316 µM): 78.7%
viability, T/C (second compound 0.1 µM, first compound 0.1 µM): 81.9%
viability, T/C (second compound 0.1 µM, first compound 0.316 µM): 79.6%
viability, T/C (second compound 0.1 µM, first compound 1 µM): 84.7%
viability, T/C (second compound 0.1 µM, first compound 3.16 µM): 86.6%
viability, T/C (second compound 0.1 µM, first compound 10 µM): 67.6%
viability, T/C (second compound 0.316 µM, first compound 0.0316 µM): 86.5%
viability, T/C (second compound 0.316 µM, first compound 0.1 µM): 86.6%
viability, T/C (second compound 0.316 µM, first compound 0.316 µM): 85.7%
viability, T/C (second compound 0.316 µM, first compound 1 µM): 80%
viability, T/C (second compound 0.316 µM, first compound 3.16 µM): 83.8%
viability, T/C (second compound 0.316 µM, first compound 10 µM): 69.8%
viability, T/C (second compound 1 µM, first compound 0.0316 µM): 88.9%
viability, T/C (second compound 1 µM, first compound 0.1 µM): 74.2%
viability, T/C (second compound 1 µM, first compound 0.316 µM): 78.5%
viability, T/C (second compound 1 µM, first compound 1 µM): 80.8%
viability, T/C (second compound 1 µM, first compound 3.16 µM): 80.1%
viability, T/C (second compound 1 µM, first compound 10 µM): 70.8%
viability, T/C (second compound 3.16 µM, first compound 0.0316 µM): 85.6%
viability, T/C (second compound 3.16 µM, first compound 0.1 µM): 74.2%
viability, T/C (second compound 3.16 µM, first compound 0.316 µM): 77%
viability, T/C (second compound 3.16 µM, first compound 1 µM): 81.4%
viability, T/C (second compound 3.16 µM, first compound 3.16 µM): 79.5%
viability, T/C (second compound 3.16 µM, first compound 10 µM): 68.1%
viability, T/C (second compound 10 µM, first compound 0.0316 µM): 90.7%
viability, T/C (second compound 10 µM, first compound 0.1 µM): 80.7%
viability, T/C (second compound 10 µM, first compound 0.316 µM): 82.2%
viability, T/C (second compound 10 µM, first compound 1 µM): 83.8%
viability, T/C (second compound 10 µM, first compound 3.16 µM): 81.5%
viability, T/C (second compound 10 µM, first compound 10 µM): 68.3%

COC1C(OC(N)=O)C(O)C(Oc2ccc3c(O)c(NC(=O)c4ccc(O)c(CC=C(C)C)c4)c(=O)oc3c2C)OC1(C)C (stereo unspecified)
viability, T/C (compound 0.0316 µM): 94.1% [middle of 13 runs]
viability, T/C (compound 0.1 µM): 95.9% [middle of 13 runs]
viability, T/C (compound 0.316 µM): 98.5% [middle of 13 runs]
viability, T/C (compound 1 µM): 98.8% [middle of 12 runs]
viability, T/C (compound 3.16 µM): 98.5% [middle of 13 runs]
viability, T/C (compound 10 µM): 106% [middle of 13 runs]
IC50 (compound alone, run of 11/27/2023): > 10 µM

C=CC(=O)N1CCN(c2nc(=O)n(-c3c(C)ccnc3C(C)C)c3nc(-c4c(O)cccc4F)c(F)cc23)C(C)C1 (stereo unspecified)
viability, T/C (compound 0.0316 µM): 101% and 99.6% and 109%
viability, T/C (compound 0.1 µM): 87.9% and 97.3% and 91.8%
viability, T/C (compound 0.316 µM): 95.6% and 105% and 106%
viability, T/C (compound 1 µM): 98.9% and 116% and 108%
viability, T/C (compound 3.16 µM): 105% and 94.4% and 114%
viability, T/C (compound 10 µM): 90.5% and 92.3% and 86.1%
IC50 (curve of compound): > 10 µM

CCc1cc2c(N3CCc4c(cc(Cn5ccnc5)cc4-c4cn(C)nc4C(F)(F)F)C3=O)cc(C)nc2c(OC)n1
viability, T/C (compound 0.0316 µM): 78.8% and 91% and 78.9%
viability, T/C (compound 0.1 µM): 81.9% and 91.9% and 92.2%
viability, T/C (compound 0.316 µM): 79.6% and 85.4% and 85.2%
viability, T/C (compound 1 µM): 81.4% and 83.5% and 75.8%
viability, T/C (compound 3.16 µM): 76.3% and 76.6% and 80.9%
viability, T/C (compound 10 µM): 72.1% and 69.1% and 62.2%
IC50 (curve of compound): > 10 µM
